One assay concerns the target T1, α1B adrenoceptor (Rattus norvegicus, UniProt P15823).
T1 construct: from tissue; host or cells: rat liver membranes
T1 sequence (P15823 1-515): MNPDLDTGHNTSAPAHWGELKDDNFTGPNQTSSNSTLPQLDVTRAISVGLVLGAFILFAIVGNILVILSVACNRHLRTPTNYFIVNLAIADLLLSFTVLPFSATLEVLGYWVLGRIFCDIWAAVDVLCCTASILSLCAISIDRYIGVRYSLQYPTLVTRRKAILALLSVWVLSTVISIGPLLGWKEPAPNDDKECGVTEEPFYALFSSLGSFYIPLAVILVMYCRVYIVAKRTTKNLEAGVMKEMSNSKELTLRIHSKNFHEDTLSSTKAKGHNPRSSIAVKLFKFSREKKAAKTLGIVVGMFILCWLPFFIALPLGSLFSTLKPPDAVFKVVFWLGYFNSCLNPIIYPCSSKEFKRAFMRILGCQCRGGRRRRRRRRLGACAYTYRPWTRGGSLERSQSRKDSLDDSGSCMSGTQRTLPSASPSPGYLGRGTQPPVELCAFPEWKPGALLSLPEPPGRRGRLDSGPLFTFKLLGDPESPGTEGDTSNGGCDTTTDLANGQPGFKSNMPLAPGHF
Briefly: Radioligand binding, [3H] prazosin displacement, rat liver membranes. The note with it: read-out: Affinity (Ki) α1B (Rat Liver). The method, boiled down:
(§1)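 Rat membranes (submaxillary for α1A, liver for α1B; 150-250 μg protein) incubated with [3H]prazosin and compound in Tris 50 mM/EDTA 5 mM pH 7.4, 1 h at 24-25° C. Nonspecific binding with 300 nM prazosin; filtration, counting; Ki via Cheng–Prusoff.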

Assay [1] deals with T2, α1A adrenoceptor (prostate) (Rattus norvegicus, UniProt P43140).
T2 construct: from tissue; host or cells: isolated prostate tissue
T2 sequence (P43140 1-466): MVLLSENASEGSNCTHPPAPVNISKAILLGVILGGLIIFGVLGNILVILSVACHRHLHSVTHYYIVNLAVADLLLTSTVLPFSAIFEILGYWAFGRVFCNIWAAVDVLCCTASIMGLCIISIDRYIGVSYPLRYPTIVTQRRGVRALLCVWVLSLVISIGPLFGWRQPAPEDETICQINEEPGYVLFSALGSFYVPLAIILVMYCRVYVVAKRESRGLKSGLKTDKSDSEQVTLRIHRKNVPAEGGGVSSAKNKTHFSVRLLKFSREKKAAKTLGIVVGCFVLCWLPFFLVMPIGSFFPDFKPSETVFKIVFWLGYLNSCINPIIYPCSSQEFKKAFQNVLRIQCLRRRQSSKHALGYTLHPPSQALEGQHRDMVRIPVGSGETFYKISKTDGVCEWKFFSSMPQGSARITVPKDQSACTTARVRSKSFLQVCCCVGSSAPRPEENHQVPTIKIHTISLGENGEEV
Briefly: In vitro functional assay, isolated prostate, phenylepinephrine contraction. The assay is classed as cell-based. The note with it: for Selectivity α1B/α1A / Selectivity α1D/α1A: functional, from pKB; for Kb: read-out: α Adrenoceptor Subtype (pKB) α1A (converted). The source says: (§2) In order to study selectivity of action of these compounds towards different a-adrenoceptor subtypes, the ability of these compounds to antagonise (α1D) prostate (α1A) and spleen (α1B) was studied. Aorta and spleen tissues were isolated from urethane anaesthetized (1.5 g/kg) male wister rats. Isolated tissues were mounted in organ bath containing Krebs Henseleit buffer of the following composition (mM): NaCl 118; KCl 4.7; CaCl2 2.5; MgSO4 7H2O 1.2; NaHCO3 25; KH2PO4 1.2; glucose 11.5. Buffer was maintained at 37° C. and aereated with a mixture of 95% O2 and 5% CO2. A resting tension of 2 g (aorta) or 1 g (spleen and prostate) was applied to tissues. Contractile response was monitored using a force displacement transducer and recorded on chart recorders. Tissues were allowed to equilibrate for 2 hours. At the end of equilibration period, concentration response curves to norepinephrine (aorta) and phenylepinephrine (spleen and prostate) were obtained in the absence and presence of tested compound (at concentration of […]). Antagonist affinity was calculated and expressed as pKB values in Table II.

Another assay addresses T3, α1A adrenoceptor (Rattus norvegicus, UniProt P43140).
T3 construct: from tissue; host or cells: rat submaxillary gland membranes
T3 sequence (P43140 1-466): T2 sequence (P43140 1-466)
Briefly: Radioligand binding, [3H] prazosin displacement, rat submaxillary membranes. The following applies: for pKi: [3H] prazosin displacement, rat submaxillary membranes, read-out: Affinity (Ki) α1A (Rat Submaxillary); for α1B/α1A: ratio of binding affinities, rat liver / rat submaxillary. The method, boiled down:
as §1

Assay [2] has as its target T4, α1B adrenoceptor (spleen) (Rattus norvegicus, UniProt P15823).
T4 construct: Isolated tissues were mounted in organ bath containing Krebs Henseleit buffer; from tissue; host or cells: isolated rat spleen
T4 sequence (P15823 1-515): T1 sequence (P15823 1-515)
The experiment in a line: In vitro functional assay, isolated spleen, phenylepinephrine contraction. The class given is cell-based. The note with it: for Kb: read-out: α Adrenoceptor Subtype (pKB) α1B (converted).
From the text: as §2

The next assay addresses T5, α1D adrenoceptor (aorta) (Rattus norvegicus, UniProt P23944).
T5 construct: Isolated tissues were mounted in organ bath containing Krebs Henseleit buffer; from tissue; host or cells: isolated rat aorta
T5 sequence (P23944 1-561): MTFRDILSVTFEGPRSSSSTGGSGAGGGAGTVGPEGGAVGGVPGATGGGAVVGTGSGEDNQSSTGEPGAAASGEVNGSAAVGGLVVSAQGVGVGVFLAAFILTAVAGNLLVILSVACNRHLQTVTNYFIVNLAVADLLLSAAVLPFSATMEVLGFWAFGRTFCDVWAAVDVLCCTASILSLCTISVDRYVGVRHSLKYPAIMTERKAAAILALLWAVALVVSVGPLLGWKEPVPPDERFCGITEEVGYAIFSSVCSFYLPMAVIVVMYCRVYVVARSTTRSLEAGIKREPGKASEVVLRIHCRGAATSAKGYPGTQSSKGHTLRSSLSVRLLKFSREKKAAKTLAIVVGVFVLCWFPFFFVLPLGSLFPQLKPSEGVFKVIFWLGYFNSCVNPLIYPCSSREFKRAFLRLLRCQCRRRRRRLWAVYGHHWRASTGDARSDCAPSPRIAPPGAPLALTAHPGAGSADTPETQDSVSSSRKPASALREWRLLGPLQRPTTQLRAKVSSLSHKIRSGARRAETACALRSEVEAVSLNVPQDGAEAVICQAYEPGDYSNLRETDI
The experiment in a line: In vitro functional assay, isolated aorta, norepinephrine contraction. The class given is cell-based. The note with it: for Kb: read-out: α Adrenoceptor Subtype (pKB) α1D (converted).
From the text: as §2

Where [3] appears, read: rat prostate, phenylepinephrine.

pKi: −log10 of the molar value. Where a name gives a salt, the structure may show the parent alone.

Regarding `CCOc1ccccc1[N+]1([O-])CC[N+]([O-])(CCCN2C(=O)C3CC=CCC3C2=O)CC1` (centres unmarked) [Compound No. 10, 2-[3-{4-(2-Ethoxyphenyl)piperazin-1-yl, 1,4-N,N-dioxide}propyl]-3a,4,7,7a-tetrahydro-1H-isoindole-1,3(2H)-dione], the pKi at α1B adrenoceptor and at α1A adrenoceptor was < 6.00 in each case. Besides, in assay [1], the “Selectivity α1B/α1A” value was 13. Moreover, in assay [1], the “Selectivity α1D/α1A” value stood at 40. Also, the Kb is 1.48 nM in assay [1] (setting [3]), 18.6 nM in assay [2] and 58.9 nM at α1D adrenoceptor (aorta).

In the case of `CCOc1ccccc1N1CCN(CC(O)CN2C(=O)C3CC=CCC3C2=O)CC1` (centres unmarked) [Compound No. 11, 2-[3-{4-(2-Ethoxyphenyl)piperazin-1-yl}-2-hydroxypropyl]-3a,4,7,7a-tetrahydro-1H-isoindole-1,3-(2H)-dione hydrochloride], the values for the pKi on α1B adrenoceptor and at α1A adrenoceptor were 6.72 and 8.19, respectively. Moreover, the “Selectivity α1B/α1A” value in assay [1] came to 0.1. Also, the “Selectivity α1D/α1A” value in assay [1] amounted to 0.5. Besides, the Kb in assay [1] (setting [3]) was 7.24 nM; in assay [2], 0.759 nM; on α1D adrenoceptor (aorta), 3.72 nM. In addition, the α1B/α1A on α1A adrenoceptor was 30.

`CCOc1ccccc1N1CCN(CCCN2C(=O)C3CC(O)C(O)CC3C2=O)CC1` (centres unmarked) [Compound No. 12, 2-[3-{4-(2-Ethoxyphenyl)piperazin-1-yl}propyl]-5,6-dihydroxy-3a,4,5,6,7,7a-hexahydro-1H-isoindole-1,3(2H)-dione]: the pKi (commonly the negative decadic logarithm of the Ki, by convention in mol/L) was 6.93 at α1B adrenoceptor and 8.77 at α1A adrenoceptor. In addition, the “Selectivity α1B/α1A” value in assay [1] is 60. Also, the “Selectivity α1D/α1A” value in assay [1] was determined as 4.2. The figures for the Kb (in assay [1] (setting [3]); in assay [2]; at α1D adrenoceptor (aorta)) were 1.66 nM, 100 nM and 6.92 nM, respectively. Besides, the α1B/α1A at α1A adrenoceptor was 69.

For the compound `CCOc1ccccc1N1CCN(CCCN2C(=O)C3CC(O)C(Cl)CC3C2=O)CC1.Cl` (centres unmarked) [Compound No. 17], in assay [1], the “Selectivity α1B/α1A” value is 347 and the “Selectivity α1D/α1A” value is 3.9. Also, in assay [1] (setting [3]), the “α Adrenoceptor Subtype (pKB) α1A” value turned out to be 9.54. The α1B/α1A on α1A adrenoceptor came to 50. The “α Adrenoceptor Subtype (pKB) α1B” value in assay [2] is listed as 7. On α1D adrenoceptor (aorta), the “α Adrenoceptor Subtype (pKB) α1D” value worked out at 9.07.

Turning to `CC(C)Oc1ccccc1N1CCN(CC(O)CN2C(=O)C3CC4OC4CC3C2=O)CC1` (centres unmarked) [Compound No. 30, 2-[3-{4-(2-Isopropoxyphenyl)piperazin-1-yl}-2-hydroxypropyl]-5,6-epoxy-3a,4,5,6,7,7a-hexahydro-1H-isoindole-1,3(2H)-dione], the pKi on α1B adrenoceptor is 6.41; on α1A adrenoceptor, 8.77. Moreover, the “Selectivity α1D/α1A” value in assay [1] is listed as 5.2. In addition, the Kb in assay [1] (setting [3]) was 1.66 nM; at α1D adrenoceptor (aorta), 8.71 nM. Further, the α1B/α1A on α1A adrenoceptor turned out to be 231.

With `O=C1C2CC=CCC2C(=O)N1CC(O)CN1CCN(c2ccccc2OCC(F)(F)F)CC1` (centres unmarked) [Compound No. 31, 2-[3-{4-(2-(2,2,2-Trifluoroethoxyphenyl)piperazin-1-yl}-2-hydroxypropyl]-3a,4,7,7a-tetrahydro-1H-isoindole-1,3(2H)-dione hydrochloride], the results for the pKi at α1B adrenoceptor and at α1A adrenoceptor were 7.04 and 8.64, respectively. The “Selectivity α1D/α1A” value in assay [1] is reported as 3.3. Further, the Kb in assay [1] (setting [3]) was 1.45 nM; on α1D adrenoceptor (aorta), 4.79 nM. Moreover, the α1B/α1A on α1A adrenoceptor was 40.

As for `O=C1C2CC3OC3CC2C(=O)N1CCCN1CCN(c2ccccc2OCC(F)(F)F)CC1` (centres unmarked) [Compound No. 32, 2-[3-{4-(2-(2,2,2-Trifluoroethoxy)phenyl)piperazin-1-yl}propyl]-5,6-epoxy-3a,4,5,6,7,7a-hexahydro-1H-isoindole-1,3(2H)-dione], the negative logarithm of the Ki (pKi) is 7.29 at α1B adrenoceptor and 9.74 on α1A adrenoceptor. Moreover, the “Selectivity α1D/α1A” value in assay [1] was found to be 23. In addition, the Kb in assay [1] (setting [3]) is 0.676 nM; on α1D adrenoceptor (aorta) it was 15.8 nM. In addition, the α1B/α1A at α1A adrenoceptor was determined as 283.

For `O=C1C2CC3OC3CC2C(=O)N1CC(O)CN1CCN(c2ccccc2OCC(F)(F)F)CC1` (centres unmarked) [Compound No. 34, 2-[3-{4-(2-(2,2,2-Trifluoroethoxy)phenyl)piperazin-1-yl}-2-hydroxypropyl]-5,6-epoxy-3a,4,5,7,7a-hexahydro-1H-isoindole-1,3(2H)-dione], the pKi is 6.51 at α1B adrenoceptor and 8.71 on α1A adrenoceptor. Moreover, in assay [1], the “Selectivity α1D/α1A” value was determined as 15. Besides, the Kb is 1.26 nM in assay [1] (setting [3]) and 19.1 nM at α1D adrenoceptor (aorta). Besides, the α1B/α1A at α1A adrenoceptor is recorded as 159.

Consider `CC(=O)OC1C=CCC2C(=O)N(CCCN3CCN(c4ccccc4OC(C)C)CC3)C(=O)C12` (centres unmarked) [Compound No. 40, 2-[3-{4-(2-Isopropoxyphenyl)piperazin-1-yllpropyl]4-acetoxy-3a,4,7,7a-tetrahydro-1H-isoindole-1,3(2H)-dione hydrochloride], for which the figures for the pKi at α1B adrenoceptor and at α1A adrenoceptor were 6.84 and 9.09, respectively. The “Selectivity α1D/α1A” value in assay [1] is reported as 4.5. Moreover, the Kb in assay [1] (setting [3]) was 0.339 nM; at α1D adrenoceptor (aorta) it was 1.51 nM. The α1B/α1A on α1A adrenoceptor worked out at 174.

Turning to `CC(C)Oc1ccccc1N1CCN(CCCN2C(=O)C3CCCC(O)C3C2=O)CC1.Cl` (centres unmarked) [Compound No. 60, 2-[3-{4-(2-Isopropoxyphenyl)piperazin-1-yl}-propyl]4-hydroxy-3a,4,5,6,7,7a-hexahydro-1H-isoindole-1,3(2H)-dione hydrochloride], the pKi at α1B adrenoceptor is 6.85; on α1A adrenoceptor, 8.92. Also, the “Selectivity α1D/α1A” value in assay [1] came out at 18. The values for the Kb (in assay [1] (setting [3]); at α1D adrenoceptor (aorta)) were 0.363 nM and 6.46 nM, respectively. Besides, on α1A adrenoceptor, the α1B/α1A was 118.

As to `COc1ccccc1N1CCN(CC(O)CN2C(=O)C3CC=CCC3C2=O)CC1.Cl` (centres unmarked) [compound 06, 2-[3-{4-(2-Methoxyphenyl)piperazin-1-yl}-2-hydroxypropyl]-3a,4,7,7a-tetrahydro-1H-isoindole-1,3(2H)-dione hydrochloride], the pKi on α1B adrenoceptor was 6.58; at α1A adrenoceptor it was 7.42. Further, the “Selectivity α1D/α1A” value in assay [1] is 0.56. Further, the values for the Kb (in assay [1] (setting [3]); at α1D adrenoceptor (aorta)) were 6.61 nM and 3.72 nM, respectively. In addition, the α1B/α1A at α1A adrenoceptor is listed as 7.

Values taken from US20050228180A1, “Alpha, omega-dicarboximide derivatives as useful uro-selective a1a adrenoceptor blockers” (priority 2002, published 2005).
